Usually half-life stands for how long it takes for the measured level to halve. Usually Emax stands for the size of the effect at its maximum, as opposed to the concentration needed. As a reminder, the EC50 is the concentration that produces a half-maximal response. For orientation: Ki means a dissociation constant, usually derived from enzyme kinetics or from competition with a known ligand.

“And” between values parts separate entries of the source, which are not always exact repeats. Identical values can stand only once. The source made the active and inactive calls. The calls are words filed in the database; no cut-off is given here.

Series [1] can be described thus: Half life in monkey liver microsomes. Type of series: ADME, Microsome. The following applies: cercopithecidae.
Series [2] in a line: Half life in rat liver microsomes. It counts as ADME, Microsome. A general note: Microsomes from liver hold many membrane-bound enzymes, among them those of drug oxidation.
Series [3] in a line: Half life in human liver microsomes. Type of series: ADME, Microsome.
The species entered for series [4] is Homo sapiens. Put plainly: Percentage stimulation of [35S]-GTPcS binding compared to relevant control. Type of series: functional.
Series [5] can be described thus: Stimulation of [35S]GTPcS binding against recombinant human opioid receptor delta 1. Type of series: functional.
Series [6] is described as follows: Stimulation of [35S]GTPcS binding against recombinant human opioid receptor mu 1. It counts as functional.
A short description of series [7]: Inhibition of [3H]DPDPE binding to recombinant human Opioid receptor delta 1.
Series [8] is described as follows: Inhibition of [3H]U-69593 binding to recombinant human Opioid receptor kappa 1.
The nature of series [9]: Stimulation of [35S]GTPcS binding against recombinant human opioid receptor kappa 1. Type of series: functional.
Series [10] concerns the target Opioid receptors; mu & delta (Homo sapiens) (UniProt P41143+P35372). Put plainly: Receptor selectivity ratio for Opioid receptors delta 1 and mu 1. Type of series: protein assay.
Series [11] can be described thus: Stimulation of [35S]GTPcS binding against recombinant human opioid receptor kappa 1;ND=no detectable activity. It counts as functional.
The species entered for series [12] is Homo sapiens. In words: Percentage stimulation of [35S]GTPcS binding compared to relevant control;ND=no detectable activity. It counts as functional.
The next series has as its target Mu-type opioid receptor (Homo sapiens, UniProt P35372). In words: Inhibition of [3H]-DAMGO binding to recombinant human Opioid receptor mu 1.
For series [13], the species on record is Homo sapiens. Put plainly: Percentage stimulation of [35S]GTPcS binding compared to relevant control; ND=Not detectable activity. Type of series: functional.

Chain of Mu-type opioid receptor (P35372 whole entry): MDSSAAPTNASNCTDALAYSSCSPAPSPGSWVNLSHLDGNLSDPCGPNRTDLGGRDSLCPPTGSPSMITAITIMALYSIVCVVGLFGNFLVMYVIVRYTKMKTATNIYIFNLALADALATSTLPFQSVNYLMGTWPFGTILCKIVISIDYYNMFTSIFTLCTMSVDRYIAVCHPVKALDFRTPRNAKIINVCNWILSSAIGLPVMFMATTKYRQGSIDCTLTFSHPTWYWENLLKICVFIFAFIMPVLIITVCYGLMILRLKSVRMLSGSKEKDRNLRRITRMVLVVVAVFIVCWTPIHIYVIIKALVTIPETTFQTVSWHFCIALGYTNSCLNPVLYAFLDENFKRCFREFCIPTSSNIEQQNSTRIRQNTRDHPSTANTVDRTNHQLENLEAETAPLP
Chain of Opioid receptors; mu & delta (Homo sapiens) (P35372 whole entry, looked up): as the sequence (P35372 whole entry) above
Chain of Opioid receptors; mu & delta (Homo sapiens) (P41143 whole entry, looked up): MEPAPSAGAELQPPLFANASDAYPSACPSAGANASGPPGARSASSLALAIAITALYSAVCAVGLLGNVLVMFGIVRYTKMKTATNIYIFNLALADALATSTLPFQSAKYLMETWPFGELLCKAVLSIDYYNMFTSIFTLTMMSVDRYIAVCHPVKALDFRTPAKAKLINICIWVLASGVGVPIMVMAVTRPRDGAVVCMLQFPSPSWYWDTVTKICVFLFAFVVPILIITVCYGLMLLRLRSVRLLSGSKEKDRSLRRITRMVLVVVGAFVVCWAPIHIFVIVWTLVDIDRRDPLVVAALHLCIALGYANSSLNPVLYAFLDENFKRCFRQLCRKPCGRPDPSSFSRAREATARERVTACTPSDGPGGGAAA

On to `COC1[C@H](NC(=O)CC2OC(COCc3ccccc3)C(OCc3ccccc3)C(OCc3ccccc3)C2OCc2ccccc2)CC[C@H]2[C@H]3Cc4ccc(O)cc4[C@@]12CCN3C` (some centres not stated), for which the half-life in series [1] turned out to be 90 min; in [2], 19.8 min; in [3], 42.9 min.

Turning to `COC1[C@H](SC2OC(CO)C(O)C(O)C2O)C=C[C@H]2[C@H]3Cc4ccc(O)cc4[C@@]12CCN3C` (some centres not stated), the Emax in the series filed under Homo sapiens [4] is 42.5% and 64.5% and 51.5%. Moreover, the EC50 was determined as 192 nM in [5], 91.5 nM in [6] and 321 nM in series [9]. The Ki in series [7] was 56.2 nM; in series [8], 136 nM. In addition, the Selectivity in series [10] is 10.4 and 25.4.

On to `COC1[C@H](SC2OC(C(=O)O)C(O)C(O)C2O)C=C[C@H]2[C@H]3Cc4ccc(O)cc4[C@@]12CCN3C` (some centres not stated), for which the EC50 entry in [11] was “Not Active”; in series [5] it was 50.1 nM; in [6], 90.6 nM. The Emax result in the series filed under Homo sapiens [12] is “inactive”. In addition, the Ki was determined as 8.7 nM at Mu-type opioid receptor, 31.4 nM in series [7] and 288 nM in series [8].

As to `CN1CC[C@]23c4c5ccc(O)c4O[C@H]2[C@@H](O[C@@H]2O[C@H](C(=O)O)[C@@H](O)[C@H](O)[C@H]2O)C=C[C@H]3[C@H]1C5` [MORPHINE GLUCURONIDE], the values for the EC50 in series [5], in series [6] and in series [9] were 190 nM, 72.3 nM and greater than 10000 nM, respectively. For the same compound, the Ki on Mu-type opioid receptor stood at 12.9 nM; in series [7], 170 nM; in [8], 4060 nM. Also, the Emax entry in the series listed under Homo sapiens [13] is “inactive”.

As for `COC1[C@H](NC(=O)CC2OC(COCc3ccccc3)C(OCc3ccccc3)C(OCc3ccccc3)C2OCc2ccccc2)C=C[C@H]2[C@H]3Cc4ccc(O)cc4[C@@]12CCN3C` (some centres not stated), the half-life in [1] worked out at 30.7 min; in [2], 24.6 min. The EC50 in series [5] came out at 2.2 nM; in series [6], 623 nM; in series [9], 1.8 nM. The Ki amounted to 0.5 nM at Mu-type opioid receptor, 7.2 nM in [7] and 15.8 nM in [8].

As to `COC1[C@H](NC(=O)CC2OC(CO)C(O)C(O)C2O)C=C[C@H]2[C@H]3Cc4ccc(O)cc4[C@@]12CCN3C` (some centres not stated) [DEPROTECTED COGENER OF M6G], the EC50 was 335 nM in series [5] and 37.2 nM in series [6]. For the same compound, the Ki on Mu-type opioid receptor was determined as 3.5 nM; in series [7] it was 266 nM. Further, in series [10], the Selectivity was 76.7 and 166.

The record behind these values is ChEMBL document CHEMBL1141907, “Synthesis and in vitro biological evaluation of a carbon glycoside analogue of morphine-6-glucuronide” (Bioorg Med Chem Lett, 2005).
